From PMC7013346, “Bioaccessibility and Pharmacokinetics of a Commercial Saffron (Crocus sativus L.) Extract” (Evidence-based Complementary and Alternative Medicine : eCAM, 2020)
Where two headings read alike, the source gives them in different places. Marks after values point to notes of the source that are not given here.

Assays:
[1] = Abiotic in vitro digestion (salivary, gastric, duodenal steps) of affron® tablets, HPLC-PAD/MS quantification; type: in vitro ADME; conditions: for Bioactive molecule content, initial sample: affron® before in vitro digestion; for Bioactive molecule content, initial sample / Bioactive molecule content, digested sample, duodenal / Bioactive molecule content, digested sample, gastric / Bioactive molecule content, digested sample, salivary: mean ± SD; for Bioactive molecule content, digested sample, duodenal: after duodenal step, 150 min, pH 7, 37°C, pancreatin and bile extract; for Bioactive molecule content, digested sample, gastric: after gastric step, 90 min, pH 2, 37°C, pepsin; for Bioactive molecule content, digested sample, salivary: after salivary step, 5 min, pH 6.9, 37°C, α-amylase; for Bioaccessibility: after whole in vitro digestion of affron® tablets, relative to initial content
Description: Briefly, the salivary step runs for 5 min at pH 6.9 and 37°C, under aerobic conditions with 3.9 units α-[…]. Then, the samples were transferred for 90 min to the gastric step at pH 2 and 37°C with 71.2 units pepsin/ml under anaerobic conditions. Finally, the duodenal step was set for 150 min at pH 7 and 37°C, with 9.2 mg pancreatin/ml and 55.2 mg bile extract/ml under anaerobic conditions. Samples were taken from every steps and were centrifuged at 7000 g for 40 min at 4°C. […] All samples were analysed at least in duplicate. High-performance liquid chromatography (HPLC) analysis of bioactive components from initial and digested saffron extract was performed using an Agilent Technologies 1220 Infinity series system equipped with a photodiode array detector (PAD) according to Kell et al., while the analysis of crocetin was according to Umigai et al.. […] To estimate the percentage of bioaccessibility of the main bioactive compounds of affron®, an equation was used according to Ordoudi et al.

[2] = Single-dose pharmacokinetics of crocetin in plasma after oral affron® tablets in healthy volunteers; type: in vivo, human; conditions: for Detection in plasma after affron® intake: human plasma, 0.5-3 h and 24 h after 56 or 84 mg affron®, HPLC
Description: A single dose, randomized, double blinded study was used to evaluate the pharmacokinetics of two different saffron doses (56 mg and 84 mg). The randomization code was generated by Random Allocation Software, sealed envelope (London, UK). Enrolled participants were then allocated to one of two groups: group 1: consumed 4 × 14 mg of affron® tablets (56 mg single dose); group: 2 : 6 × 14 mg of affron® tablets (84 mg single dose).
The subjects of the pharmacokinetics were adult male (n = 5) and female (n = 8; nonpregnant and nonlactating) healthy volunteers of 18–30 years age. All participants self-reported to be in normal physical health (BMI < 30) and passed the exclusion screening. Exclusion criteria included suffering clinically significant medical condition, such as, but not limited to, cardiovascular, neurological, psychiatric, renal, immunological, endocrine (including uncontrolled diabetes or thyroid disease), or uncontrolled haematological abnormalities. Other exclusion criteria were the use within the past 3 months of the tested compounds and/or antioxidants; no current use of prescription medications except the oral contraceptive pill in women; and known allergy to any tested compound and/or antioxidant.
All participants were advised to fast from 10 : 00 pm prior to the study until the collection of the first blood sample. Fasting was broken immediately after dosing the corresponding tablets. At time 0 h and at 4 h after dosing, balanced breakfasts (410 kcal, approximately 30% of them from fats) and lunches (625 kcal, approximately 30% from fats) were served at the center. The meals were poor in carotenoids. Subjects remained onsite for the full first 6 hours of sample collection and returned to the center again for the 24 h samples. Subjects were monitored and asked to report any possible side-effects experienced due to intake of the tablets during the whole 24 h time after the intake of the tablets.
For crocetin pharmacokinetic analysis, blood samples (3 ml collected into tubes with EDTA) were drawn prior to affron® supplementation (time 0 h), between time 30 and 180 min at every 30 min and 24 h after supplementation. The blood tubes were briefly mixed by inversion and put on ice and centrifuged (600 g, 4°C for 10 min) to separate the plasma. The EDTA-plasma of every sample was carefully removed in 3 aliquots (500 μl each) and stored at −20°C for less than 48 h before being finally transported and stored at −80°C.
Plasma samples were extracted based on the method described and validated by Mohammadpour et al.. Briefly, plasma samples were thawed to room temperature. Then, 20 μl of an internal standard solution of 13-cis-retinoic acid and 120 μl acetonitrile were added to 100 μl of sample. The samples tubes were capped and vortexed for 10 s and put on ice for 5 min. The samples were then gently rotated for 10 minutes before centrifuging at 12000 g for 10 min. The supernatant was collected and analysed by HPLC.
The efficiency of the extraction process was estimated by the measure of the residual amount of the internal standard, and 13-cis-retinoic acid was recovered after the analysis. The recovery percentage was then applied to the results to calculate the true concentration of crocetin in the samples.
The chromatogram of a sample of pure standard crocetin and its typical absorption wavelength were used to identify and confirm the crocetin peak in every analysis, as shown in Mohammadpour et al..
The crocetin concentration in biological samples was calculated using a standard linear curve at several crocetin concentration and the Shimadzu software for chromatogram analysis. All samples fell within the range of the linear standard curve (concentration (μg/ml) = (AUC + 131.56)/9475). The intra-assay precision CV was 4.8%, and the interassay variability and precision CV were 7.3%, with a blood detection limit of 0.05 μg/ml.
Pharmacokinetic parameters were derived using GraphPad Prism 7.0 (California, USA). […]

[3] = set-up: method as in PMID 21112749; conditions: human, single oral dose of 22.5 mg of crocetin from G. jasminoides; cited from earlier work
[4] = set-up: method as in PMID 23638292; conditions: human, single oral dose of 16 mg of saffron crocetins; cited from earlier work

Compound | Bioactive molecule content, initial sample [1] | Bioactive molecule content, initial sample ([1]; listed as safranal) | Bioactive molecule content, digested sample, duodenal [1] | Bioactive molecule content, digested sample, duodenal ([1]; listed as safranal) | Bioactive molecule content, digested sample, gastric [1] | Bioactive molecule content, digested sample, salivary [1] | Bioaccessibility [1] [%] | Increase of content after the digestion process vs initial concentration ([1]; whole in vitro digestion) | Detection in plasma after affron® intake ([2]; listed as safranal) | Decrease of content after the digestion process ([1]; whole in vitro digestion vs initial conditions) [%] | Detection in plasma after affron® intake ([2]; listed as picrocrocin) | Change of concentration over the whole in vitro digestion process vs initial composition ([1]; salivary, stomach and duodenal steps) | half-life ([2]; both sexes, plasma, crocetin after oral affron® tablets, human, dose not separated, read-out: Plasmatic half-life (converted)) [min] | Clearance ([2]; crocetin after oral affron® tablets, human, dose not separated) [L/h] | Time after administration at which plasma crocetin fell to the HPLC-PAD quantification limit / ceased to be detected ([2]; human, 56 or 84 mg affron®) [h] | Crocetin concentration in plasma 24 h after affron® intake ([2]; human, 24 h, detection limit 0.05 μg/ml) | Reduction of content during gastric digestion ([1]; acid-pepsin environment, gastric step) [%] | Detection in plasma after affron® intake [2] | Cmax [3] [ng/mL] | Cmax [4] [ng/mL]
CC1=C(C=O)C(C)(C)CC=C1 [Safranal] | 0.04 ± 0.01^a %, dry basis | 0.04 %, dry basis | 0.08 ± 0.01^b %, dry basis | 0.08 %, dry basis | 0.21 ± 0.01^c %, dry basis | 0.03 ± 0.00^a %, dry basis | 200.00 | about 2 folds | not detected | – | – | – | – | – | – | – | – | not detected or appeared below the detection limit | – | –
CC1=C(C=O)C(C)(C)CC(O[C@@H]2O[C@H](CO)[C@@H](O)[C@H](O)[C@H]2O)C1 (stereo partly drawn) [Picrocrocin, 4-(β-D-glucopyranosyloxy)-2,6,6-trimethyl-1-cyclohexene-1-carboxaldehyde] | 3.21 ± 0.07^c %, dry basis | – | 2.61 ± 0.05^b %, dry basis | – | 2.07 ± 0.02^a %, dry basis | 3.14 ± 0.11^c %, dry basis | 81.31 | – | – | 19 | not detected | – | – | – | – | – | – | absent | – | –

Continued, in another order:

Bioactive molecule content, initial sample [1] | Bioactive molecule content, initial sample ([1]; listed as safranal) | Bioactive molecule content, digested sample, duodenal [1] | Bioactive molecule content, digested sample, duodenal ([1]; listed as safranal) | Bioactive molecule content, digested sample, gastric [1] | Bioactive molecule content, digested sample, salivary [1] | Bioaccessibility [1] [%] | Increase of content after the digestion process vs initial concentration ([1]; whole in vitro digestion) | Detection in plasma after affron® intake ([2]; listed as safranal) | Decrease of content after the digestion process ([1]; whole in vitro digestion vs initial conditions) [%] | Detection in plasma after affron® intake ([2]; listed as picrocrocin) | Change of concentration over the whole in vitro digestion process vs initial composition ([1]; salivary, stomach and duodenal steps) | half-life ([2]; both sexes, plasma, crocetin after oral affron® tablets, human, dose not separated, read-out: Plasmatic half-life (converted)) [min] | Clearance ([2]; crocetin after oral affron® tablets, human, dose not separated) [L/h] | Time after administration at which plasma crocetin fell to the HPLC-PAD quantification limit / ceased to be detected ([2]; human, 56 or 84 mg affron®) [h] | Crocetin concentration in plasma 24 h after affron® intake ([2]; human, 24 h, detection limit 0.05 μg/ml) | Reduction of content during gastric digestion ([1]; acid-pepsin environment, gastric step) [%] | Compound | Detection in plasma after affron® intake [2] | Cmax [3] [ng/mL] | Cmax [4] [ng/mL]
0.13 ± 0.01^b,c %, dry basis | – | 0.09 ± 0.01^a %, dry basis | – | 0.12 ± 0.01^b %, dry basis | 0.14 ± 0.01^c %, dry basis | 69.23 | – | – | – | – | – | – | – | – | – | – | Kaempferol diglucoside | – | – | –
0.03 ± 0.01^a %, dry basis | – | 0.02 ± 0.01^a %, dry basis | – | 0.03 ± 0.01^a %, dry basis | 0.02 ± 0.01^a %, dry basis | 66.67 | – | – | – | – | did not increase | 51 ± 2.4 | 2.70 ± 0.14 | 3 | below the detection limit | – | CC(/C=C/C=C(\C)C(=O)O)=C\C=C\C=C(C)\C=C\C=C(/C)C(=O)O [Crocetin] | – | 280 | 350
1.66 ± 0.04^b %, dry basis | – | 0.20 ± 0.04^a %, dry basis | – | 0.26 ± 0.03^a %, dry basis | 1.11 ± 0.43^b %, dry basis | 12.05 | – | – | – | – | – | – | – | – | – | 84 | CC(/C=C/C=C(\C)C(=O)O[C@@H]1O[C@H](CO[C@@H]2O[C@H](CO)[C@@H](O)[C@H](O)[C@H]2O)[C@@H](O)[C@H](O)[C@H]1O)=C\C=C\C=C(C)\C=C\C=C(/C)C(=O)O[C@@H]1O[C@H](CO[C@@H]2O[C@H](CO)[C@@H](O)[C@H](O)[C@H]2O)[C@@H](O)[C@H](O)[C@H]1O (relative stereo) [t-crocin-4, trans-crocin-4] | – | – | –
